“Also recorded” adds a separate entry of the source.
System: IFN+CD8+ T cells
Experiment: GF mice inoculated with human faecal samples or mouse B5 caecal contents, with or without antibiotics
Format: in vivo
Conditions: antibiotics via drinking water or chloroform-treated caecal contents
From the text: Next, it was investigated whether the human gut microbiota contained microbes which were able to induce IFN+CD8+ T cells (FIG. 4). Stool samples were collected from six healthy human volunteers (A˜F) (FIG. 5). The samples were individually administered orally into germ free […] mice kept in sterile isolators (five or six mice per group). Four weeks after oral inoculation of stool samples, mice were sacrificed, and small intestine and colons were harvested and investigated for IFN+CD8+ T-cells by FACS.
The mice were then orally administrated drinking water with or without Ampicillin, Metronidazole, Streptomycin or Tylosin (five mice per group) (FIG. 10). Alternatively, cecal contents of mouse B #5 were treated with 3% chloroform and orally inoculated into another five germ-free mice (‘B #5+Chrolo’). […] B #5 microbiota.
Human faecal samples were collected at the RIKEN institute and Keio University according to the study protocol approved by the institutional review board. Informed consent was obtained from each subject. Faecal samples and mouse B5 caecal contents were suspended in equal volume (w/v) of PBS containing 20% glycerol/PBS, snap-frozen in liquid nitrogen, and stored at −80° C. until use. The frozen stocks were thawed, suspended in TS broth, filtered through a 100 µm cell strainer, and orally inoculated into GF mice (approximately 5-60 mg/250 μL, per mouse). After 24 hours of inoculation, some mice were treated with ampicillin (1 g/L), metronidazole (1 g/L), tylosin (0.5 g/L) or streptomycin (0.5 g/L) via the drinking water. For chloroform treatment of B5 caecal contents, the caecal content suspension was mixed with chloroform (final concentration 3%) and incubated in a shaking water bath for 60 min followed by evaporation of chloroform via bubbling with N2 gas for 30 min. To isolate IFN+[…] T cell-inducing bacterial strains, caecal contents from GF+B5-Amp2 and GF+B5-Amp3 mice were serially dilated with PBS and seeded onto nonselective and selective agar plates (GAM, CM0151, and BBE). After culture under anaerobic conditions (80% N2, 10% H2, 10% CO2) in an anaerobic chamber (Coy Laboratory Products) at 37° C. for 2 to 4 days, individual colonies were picked, and the 16S rRNA gene region was amplified with universal primers (27F: 5′-[…]-3′ (SEQ ID NO:12), 1492R: 5′-[…]-3′ (SEQ ID NO:13)) and sequenced. Individual isolates in the culture collection were grouped as “strains” if their 16S rRNA gene sequences had 100% identity. The resulting strain sequences were compared to those in the RDP database and to OTUs observed in caecal samples from GF+B5−Amp2 and GF+B5−Amp3 to determine closely related species or strains and their corresponding OTUs. To prepare a bacterial mixture, bacterial strains were individually grown in GAM, CM0149, or EG both to confluence and equal volumes of media were mixed. […] The mixture of isolates was orally administered to GF mice (approximately 1-2×10^8 CFU of each strain in 250 μL medium per mouse). All mice receiving a given mixture of bacterial strains were maintained in a single gnotobiotic isolator. For administration of heat-killed bacteria, 11 strains cultured individually for 3 days were mixed, washed with autoclaved water, heat-killed at 121° C. for 30 min, and given to GF mice via the drinking water (2-10×10^7 equivalent CFU of each strain per 1 mL) for 4 weeks. C57BL/6 GF mice (6-12 weeks old) were used and analysed 3-4 weeks after bacterial colonization unless otherwise indicated.

`CC1(C)S[C@@H]2[C@H](NC(=O)[C@H](N)c3ccccc3)C(=O)N2[C@H]1C(=O)O` [Ampicillin, ampicillin] was tested, and the “effect of treatment on IFN+CD8+ T cell induction by mouse B5 microbiota” value (“effect of treatment” below) was “enhanced induction” and the “effect of treatment” value (listed as Amp) was “enhanced the induction of IFN+CD8 T cells; also recorded: enhanced the observed induction”.
In the case of `Cc1ncc([N+](=O)[O-])n1CCO` [MNZ, metronidazole], the “effect of treatment” value is reported as “substantial decrease in IFN+CD8 T cell induction”.
In the case of `[H]/N=C(/N)N[C@H]1[C@H](O)[C@@H](O)[C@H](O[C@@H]2O[C@@H](C)[C@](O)(C=O)[C@H]2O[C@@H]2O[C@@H](CO)[C@H](O)[C@@H](O)[C@@H]2NC)[C@@H](N/C(N)=N\[H])[C@@H]1O` [STM, streptomycin], the “effect of treatment” value is reported as “substantial decrease in IFN+CD8 T cell induction”.
In the case of `CC[C@H]1OC(=O)C[C@@H](O)[C@H](C)[C@@H](O[C@@H]2O[C@H](C)[C@@H](O[C@H]3C[C@@](C)(O)[C@@H](O)[C@H](C)O3)[C@H](N(C)C)[C@H]2O)[C@@H](CC=O)C[C@@H](C)C(=O)/C=C/C(C)=C/[C@@H]1CO[C@@H]1O[C@H](C)[C@@H](O)[C@@H](OC)[C@H]1OC` [Tyl, tylosin], the “effect of treatment” value is reported as “substantial decrease in IFN+CD8 T cell induction”.
`ClC(Cl)Cl` [chloroform] was tested, and the “effect of treatment” value was “reduced the induction capability; also recorded: abrogated induction altogether” and the “effect of treatment” value (listed as Chlo) was “abrogated it altogether”.

Reference: patent US11723934B2, “Compositions and methods for the induction of CD8+ T-cells” (Keio University, priority 2018, dated 2023)
